Where a SMILES comes first, the peptide text is derived from it.
How the values were obtained:
[1] = test system: oxaliplatin-induced cold allodynia; assay: Oxaliplatin-induced cold allodynia, acetone evaporating cold test; type: in vivo, mice; conditions: 3.5 μg/20 μL intraplantar, day 10 after oxaliplatin
Experimental: Adult male CD1 mice (6-8 weeks old) were used as experimental animals for behavioral experiments and primary cultures of DRG neurons. Mice were raised in the condition of 12 h light/12 h dark of light cycle with adequate standard chow and water. All animal protocols were approved by the Institutional Animal Care and Use Committee (IACUC) of Zhejiang University.
All of mice were habituated to the behavioral testing environment for 1-to-2 hours in 2-to-3 days before the behavioral testing. Single intraperitoneal (i.p.) injection of oxaliplatin (6 mg/kg body weight) was given to generate chemotherapy-induced neuropathic pain. Neuropathic pain behaviors were tested about 10 days after oxaliplatin injection.
Acetone-induced evaporating cold test was used to assess the oxaliplatin-induced cold allodynia. 50 μL acetone was gently splashed to the hind-paw plantar of oxaliplatin-treated mice via a syringe attached with plastic tube. The time spent in withdrawing, flinching or licking the stimulated paw was recorded and blindly counted during 5 min after acetone treatment. The cold allodynia behavior of mice was respectively measured on day 10 pre- or post-treatment with oxaliplatin, Vehicle or 3.5 μg/20 μL DeC-1.2 was intraplantarly injected to assess its analgesic effect on oxaliplatin-induced allodynia.

[2] = test system: CCI-induced cold allodynia; assay: Chronic constriction injury (CCI) model of neuropathic pain: cold allodynia; type: in vivo; conditions: CCI rats
From the text: Male Sprague-Dawley rats (purchased from Shanghai SLAC Laboratory Animal Co., Ltd. at the beginning of the experiment for 7 weeks, n=7-10/treatment) were used. CCI status was formed according to the method of Bennett G J and Xie Y K (Pain 1988, 33:87-107). Rats were anesthetized by intraperitoneal injection of sodium pentobarbital. The left common sciatic nerve was made to be exposed in the middle of the thigh in a state deprived of adherent tissue, and 4-0 silk thread (Ethicon Inc.) was utilized around it and four passes were loosely ligated at approximately 1-mm intervals. Sham surgery was performed in the same manner except for sciatic nerve ligation. After 1-2 weeks after CCI surgery, as documented in Tanimoto-Mori Setal. (BehavPharmacol., 19:85-90, 2008), The cold allodynia was evaluated by using a cooling plate (LHP-1700CP, TECA) with a temperature controller (Mode 13300-0, CAL Controls Inc.). The animals were acclimatized to a device consisting of a transparent acrylic box (10×12×12 cm) on a stainless steel plate (15×33 cm). The surface of the cooling plate was maintained at 10° C., and the temperature of the plate was continuously monitored with an accuracy of 0.1° C. To perform the experiment, rats were loaded on the cooling plate and the polypeptide DeC-1.2 was administered before and after a cutoff value of 120 seconds, and the paw withdrawal latency (PWL) was measured. […]

TRPM2 = target: T1, TRPM2 (Homo sapiens, UniProt O94759); assay: Electrophysiological recording, ligand activation of TRPM2; type: cell-based
T1 construct: expressed in transfected cells; host or cells: HEK293T
Experimental: (§1) HEK293T cells were cultured in Dulbecco's modified Eagle culture medium under a 37° C., 5% CO2 environment, 10% fetal bovine serum, penicillin (100 U/mL), and streptomycin ([…]) was needed to add into the culture medium. Transient transfection was conducted by using Lipo 2000 (Invitrogen) transfection kit and following the instruction manual.
(§2) Electrophysiological experiment recordings were performed on the cells within 24˜48 h of transient transfections. Specifically, single channel electrophysiological recordings were performed within 8 h after transfection.
(§3) Measurement of the cell currents was respectively performed in the whole-cell recording mode, inside-out recording mode or outside-out recording mode with a HEKA EPC10 amplifier. In the whole cell electrophysiological recordings, glass microelectrodes made of borosilicate material were fire-polished to a original electrode resistance of about 3-6 MΩ. Serial resistance was compensated by 60%. The whole cell electrophysiological recordings were performed at ±80 mV. For single channel electrophysiological recordings, glass microelectrodes were fire-polished to a higher resistance of 6-8 MΩ2. Current signal was sampled at 10 kHz and filtered at 2.9 kHz. Membrane potential of the cell membrane would be clamped at +80 mV. All electrophysiological recordings were performed at room temperature (22° C.) (the maximum variation is 1° C.). […]

TRPA1 = target: T2, TRPA1 (Homo sapiens, UniProt O75762); assay: Electrophysiological recording of TRPA1; type: cell-based
T2 construct: expressed in transfected cells; host or cells: HEK293T
Experimental: as §1, §2, §3

[3] = Mice body temperature measurement; type: in vivo; conditions: 30 μg/g body weight i.v., up to 24 h
Experimental: A digital thermometer (FT3400) was used for body temperature measurement of mice. Adult CD1 male mice were placed into an environmental room maintained at a constant temperature of 22±1° C. Mice were injected with DeC-1.2 (30 mg/kg body weight) via the tail vein to assess the effect of DeC-1.2 on body temperature. Body temperature was measured before treatment (baseline, BL) and at 5 min, 15 min, 0.5, 1, 2, 6 and 24 hours following DeC-1.2 (30 mg/kg, i.v.) administration. The test probe of the thermometer was inserted into the anus of the mouse approximately 2 cm, and the body temperature was recorded after the temperature display value was stable.

T1 sequence (O94759 whole entry): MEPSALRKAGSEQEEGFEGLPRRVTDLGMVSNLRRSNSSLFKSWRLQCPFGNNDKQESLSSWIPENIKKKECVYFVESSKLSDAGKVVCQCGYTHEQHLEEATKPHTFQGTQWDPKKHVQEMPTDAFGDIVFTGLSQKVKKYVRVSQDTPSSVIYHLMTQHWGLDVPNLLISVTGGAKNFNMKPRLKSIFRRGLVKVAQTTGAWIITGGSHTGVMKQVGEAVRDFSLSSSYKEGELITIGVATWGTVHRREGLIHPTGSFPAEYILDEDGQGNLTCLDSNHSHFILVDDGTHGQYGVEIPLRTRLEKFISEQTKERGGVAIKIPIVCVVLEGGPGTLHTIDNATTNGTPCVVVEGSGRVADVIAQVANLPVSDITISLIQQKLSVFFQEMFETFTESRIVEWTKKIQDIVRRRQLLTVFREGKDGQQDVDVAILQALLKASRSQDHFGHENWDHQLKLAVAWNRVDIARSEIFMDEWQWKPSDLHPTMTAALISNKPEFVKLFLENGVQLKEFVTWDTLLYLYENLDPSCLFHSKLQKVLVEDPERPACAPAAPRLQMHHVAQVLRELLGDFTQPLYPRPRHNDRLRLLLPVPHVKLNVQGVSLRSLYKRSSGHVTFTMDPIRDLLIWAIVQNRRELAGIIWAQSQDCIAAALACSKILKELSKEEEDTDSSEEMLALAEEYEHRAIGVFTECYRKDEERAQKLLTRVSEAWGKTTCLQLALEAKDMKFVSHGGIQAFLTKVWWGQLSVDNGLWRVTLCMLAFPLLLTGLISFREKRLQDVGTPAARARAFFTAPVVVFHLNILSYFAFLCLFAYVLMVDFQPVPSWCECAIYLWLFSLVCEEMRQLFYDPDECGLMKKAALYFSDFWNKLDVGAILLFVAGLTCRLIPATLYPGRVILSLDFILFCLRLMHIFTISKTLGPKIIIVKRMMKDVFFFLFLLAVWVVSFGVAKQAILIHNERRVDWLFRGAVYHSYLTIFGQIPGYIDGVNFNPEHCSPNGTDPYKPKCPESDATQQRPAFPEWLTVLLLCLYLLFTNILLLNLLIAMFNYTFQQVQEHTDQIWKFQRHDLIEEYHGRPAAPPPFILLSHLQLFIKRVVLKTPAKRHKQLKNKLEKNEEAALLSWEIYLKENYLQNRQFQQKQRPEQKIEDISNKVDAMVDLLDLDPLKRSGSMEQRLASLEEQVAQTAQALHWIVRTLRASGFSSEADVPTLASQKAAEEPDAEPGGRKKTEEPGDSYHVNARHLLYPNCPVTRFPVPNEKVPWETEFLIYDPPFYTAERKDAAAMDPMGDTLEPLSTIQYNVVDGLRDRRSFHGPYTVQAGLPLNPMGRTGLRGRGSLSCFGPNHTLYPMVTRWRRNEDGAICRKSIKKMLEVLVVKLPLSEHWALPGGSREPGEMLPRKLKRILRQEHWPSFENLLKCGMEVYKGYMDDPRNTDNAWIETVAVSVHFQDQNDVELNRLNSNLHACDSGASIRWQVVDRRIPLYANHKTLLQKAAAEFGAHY
T2 sequence (O75762 whole entry, species assumed): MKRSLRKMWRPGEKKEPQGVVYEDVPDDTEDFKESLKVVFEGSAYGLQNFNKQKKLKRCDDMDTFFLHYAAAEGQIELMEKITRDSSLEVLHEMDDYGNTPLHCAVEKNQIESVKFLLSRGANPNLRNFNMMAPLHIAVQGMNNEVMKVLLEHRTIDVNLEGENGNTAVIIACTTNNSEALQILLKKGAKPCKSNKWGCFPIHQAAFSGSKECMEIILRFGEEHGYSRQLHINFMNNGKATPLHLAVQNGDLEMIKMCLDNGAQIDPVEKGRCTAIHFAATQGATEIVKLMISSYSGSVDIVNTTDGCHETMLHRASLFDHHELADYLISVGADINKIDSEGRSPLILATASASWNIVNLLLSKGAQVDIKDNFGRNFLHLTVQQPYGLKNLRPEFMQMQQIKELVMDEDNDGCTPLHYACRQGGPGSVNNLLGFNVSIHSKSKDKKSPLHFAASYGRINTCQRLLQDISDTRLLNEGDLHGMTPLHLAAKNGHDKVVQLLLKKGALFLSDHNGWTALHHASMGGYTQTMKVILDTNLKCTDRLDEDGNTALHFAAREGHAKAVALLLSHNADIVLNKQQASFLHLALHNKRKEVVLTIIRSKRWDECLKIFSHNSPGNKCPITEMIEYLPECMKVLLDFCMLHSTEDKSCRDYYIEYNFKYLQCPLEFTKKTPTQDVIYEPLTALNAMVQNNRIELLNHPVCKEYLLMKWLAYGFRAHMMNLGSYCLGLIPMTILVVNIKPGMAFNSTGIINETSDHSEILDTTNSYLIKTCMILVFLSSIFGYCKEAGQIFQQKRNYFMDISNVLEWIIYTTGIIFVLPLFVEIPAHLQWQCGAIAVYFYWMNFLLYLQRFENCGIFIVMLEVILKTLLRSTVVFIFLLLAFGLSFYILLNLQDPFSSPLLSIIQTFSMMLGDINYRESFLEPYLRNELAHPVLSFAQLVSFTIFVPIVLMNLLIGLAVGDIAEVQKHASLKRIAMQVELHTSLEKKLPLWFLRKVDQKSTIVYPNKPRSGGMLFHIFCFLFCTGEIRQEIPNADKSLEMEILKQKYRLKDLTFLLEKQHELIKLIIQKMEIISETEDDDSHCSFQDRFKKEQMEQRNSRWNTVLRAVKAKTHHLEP

C[C@@H]1NC(=O)[C@H](CCCNC(=N)N)NC(=O)[C@H](CC(=O)O)NC(=O)[C@H](CCCNC(=N)N)NC(=O)[C@H](CCCNC(=N)N)NC(=O)[C@@H](N)CSSC[C@@H](C(=O)O)NC(=O)[C@H](CCCNC(=N)N)NC(=O)[C@H](CCC(N)=O)NC(=O)[C@H](CCCNC(=N)N)NC(=O)[C@H](Cc2ccc(O)cc2)NC(=O)[C@H](Cc2c[nH]cn2)NC(=O)[C@H](CCCNC(=N)N)NC1=O [DeC-1.2, CRRDRARHYRQRC] (HELM PEPTIDE1{C.R.R.D.R.A.R.H.Y.R.Q.R.C}$PEPTIDE1,PEPTIDE1,1:R3-13:R3$$$V2.0; N-terminus and C-terminus assumed)
cold pain behavior induced by acetone evaporation (acetone score) [1]: significantly improved the cold pain behavior | activity against cold allodynia (paw withdrawal latency, 10° C. cooling plate) [2]: exhibited strong activity | IC50 (TRPM2): > 100 µM | block of ligand activation of TRPM2 (TRPM2; DeC-1.2 up to 100 μM): not blocked | IC50 (TRPA1): > 100 µM | inhibition of TRPA1 (TRPA1): none of the TRP channels and Nav channels were inhibited | effect on body temperature [3]: did not significantly alter body temperature
